According to ChEMBL document CHEMBL3286108, “Novel arylsulfonamide derivatives with 5-HT₆/5-HT₇ receptor antagonism targeting behavioral and psychological symptoms of dementia” (J Med Chem, 2014):
pIC50, pKi: −log10 of the molar value. The source made the active and inactive calls. No cut-off for these calls is given here.

Key:
[1] = target: T1, 5-hydroxytryptamine receptor 2A (Homo sapiens, UniProt P28223); assay: Antagonist activity at human recombinant 5-HT2A receptor expressed in CHO-K1 cells assessed as inhibition of alpha-methyl serotonin-induced response treated 15 to 30 mins before agonist challenge by luminescence analysis; format: cell-based
T1 sequence (P28223 whole entry): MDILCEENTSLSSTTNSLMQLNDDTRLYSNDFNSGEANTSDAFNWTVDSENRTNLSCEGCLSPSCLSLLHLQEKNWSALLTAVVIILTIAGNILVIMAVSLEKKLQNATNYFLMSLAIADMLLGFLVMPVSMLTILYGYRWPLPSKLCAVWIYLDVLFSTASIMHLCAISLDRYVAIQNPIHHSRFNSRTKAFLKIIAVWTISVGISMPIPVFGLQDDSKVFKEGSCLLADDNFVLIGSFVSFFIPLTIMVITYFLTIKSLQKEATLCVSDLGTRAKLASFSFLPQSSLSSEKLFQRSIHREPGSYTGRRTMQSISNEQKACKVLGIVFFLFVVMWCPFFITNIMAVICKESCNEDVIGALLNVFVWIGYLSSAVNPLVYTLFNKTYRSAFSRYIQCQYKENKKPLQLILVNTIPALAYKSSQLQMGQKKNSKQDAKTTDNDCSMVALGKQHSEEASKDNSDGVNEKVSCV

[2] = target: Alpha-1A adrenergic receptor (Homo sapiens) (UniProt P35348); assay: Antagonist activity at human recombinant alpha1A adrenoceptor assessed as inhibition of epinephrine-induced intracellular Ca2+ release; format: functional, cell-based
Sequence of Alpha-1A adrenergic receptor (Homo sapiens) (P35348 whole entry): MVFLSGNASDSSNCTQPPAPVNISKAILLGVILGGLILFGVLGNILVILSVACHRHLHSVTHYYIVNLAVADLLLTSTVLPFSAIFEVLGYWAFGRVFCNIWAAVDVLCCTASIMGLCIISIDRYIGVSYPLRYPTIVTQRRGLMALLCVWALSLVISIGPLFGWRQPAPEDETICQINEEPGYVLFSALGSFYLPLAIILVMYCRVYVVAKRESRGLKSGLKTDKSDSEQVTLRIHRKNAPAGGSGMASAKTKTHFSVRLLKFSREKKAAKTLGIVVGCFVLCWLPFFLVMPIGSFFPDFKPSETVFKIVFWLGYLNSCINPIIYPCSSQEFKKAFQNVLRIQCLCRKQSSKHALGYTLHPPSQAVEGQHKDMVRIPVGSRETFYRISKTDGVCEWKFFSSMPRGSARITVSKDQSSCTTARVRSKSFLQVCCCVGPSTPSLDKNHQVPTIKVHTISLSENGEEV

Rattus norvegicus [3] = assay: Antipsychotic-like activity in po dosed Wistar rat assessed as inhibition of DOI-induced head twitches measured after 60 mins; format: functional; conditions: 1 h, read-out: MED
[4] = target: 5-hydroxytryptamine receptor 2C (Homo sapiens, UniProt P28335); assay: biochemical
[5] = target: T1, 5-hydroxytryptamine receptor 2A; assay: Antagonist activity at human recombinant 5-HT2A receptor assessed as inhibition of serotonin-induced inositol phosphate accumulation; format: functional
[6] = target: T2, 5-hydroxytryptamine receptor 6 (Homo sapiens, UniProt P50406); assay: Antagonist activity at human recombinant 5-HT6 receptor expressed in CHO-K1 cells assessed as inhibition of serotonin-induced response treated 15 to 30 mins before agonist challenge by luminescence analysis; format: cell-based
T2 sequence (P50406 whole entry): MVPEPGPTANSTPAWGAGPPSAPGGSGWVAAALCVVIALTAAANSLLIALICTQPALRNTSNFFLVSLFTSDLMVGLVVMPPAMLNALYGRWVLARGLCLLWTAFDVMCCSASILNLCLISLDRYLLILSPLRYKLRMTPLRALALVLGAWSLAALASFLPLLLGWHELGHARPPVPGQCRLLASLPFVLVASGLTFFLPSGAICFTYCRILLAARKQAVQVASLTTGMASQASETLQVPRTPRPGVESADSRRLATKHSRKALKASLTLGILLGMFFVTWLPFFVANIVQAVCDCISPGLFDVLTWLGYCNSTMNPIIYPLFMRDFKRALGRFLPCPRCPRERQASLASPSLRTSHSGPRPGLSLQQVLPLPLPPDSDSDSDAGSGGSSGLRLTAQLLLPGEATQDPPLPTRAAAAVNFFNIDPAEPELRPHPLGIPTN

[7] = target: Muscarinic acetylcholine receptor M5 (Homo sapiens) (UniProt P08912); conditions: CHO, 1 uM
[8] = target: Muscarinic acetylcholine receptor M4 (Homo sapiens) (UniProt P08173); assay: Displacement of [3H]4-DAMP from human recombinant M4 receptor expressed in CHO cells at 1 uM; format: cell-based
[9] = target: T2, 5-hydroxytryptamine receptor 6; assay: biochemical
[10] = target: Alpha-2C adrenergic receptor (Homo sapiens, UniProt P18825); assay: biochemical
[11] = target: T1, 5-hydroxytryptamine receptor 2A; assay: biochemical
[12] = target: T3, Muscarinic acetylcholine receptor M3 (Homo sapiens, UniProt P20309); assay: biochemical
Target sequence in this assay (P20309 whole entry): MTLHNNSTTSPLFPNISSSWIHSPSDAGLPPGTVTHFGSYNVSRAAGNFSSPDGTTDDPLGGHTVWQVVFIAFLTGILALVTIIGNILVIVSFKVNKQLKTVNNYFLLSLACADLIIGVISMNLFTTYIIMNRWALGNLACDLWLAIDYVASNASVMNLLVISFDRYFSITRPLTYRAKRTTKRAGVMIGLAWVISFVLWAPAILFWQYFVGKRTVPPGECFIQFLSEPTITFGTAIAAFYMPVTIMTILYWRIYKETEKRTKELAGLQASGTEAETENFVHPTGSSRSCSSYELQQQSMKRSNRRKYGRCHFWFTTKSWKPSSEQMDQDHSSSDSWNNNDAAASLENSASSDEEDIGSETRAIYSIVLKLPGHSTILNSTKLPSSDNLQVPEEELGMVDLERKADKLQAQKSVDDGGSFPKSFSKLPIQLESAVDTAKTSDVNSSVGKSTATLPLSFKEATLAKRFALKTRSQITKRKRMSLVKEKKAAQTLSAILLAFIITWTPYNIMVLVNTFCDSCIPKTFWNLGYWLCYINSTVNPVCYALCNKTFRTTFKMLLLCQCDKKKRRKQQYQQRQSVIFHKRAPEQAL

[13] = target: T4, 5-hydroxytryptamine receptor 7 (Homo sapiens, UniProt P34969); assay: Agonist activity at human 5-HT7 receptor expressed in CHO-K1 cells assessed as cAMP accumulation after 60 mins by TR-FRET immunoassay; format: functional, cell-based
T4 sequence (P34969 whole entry): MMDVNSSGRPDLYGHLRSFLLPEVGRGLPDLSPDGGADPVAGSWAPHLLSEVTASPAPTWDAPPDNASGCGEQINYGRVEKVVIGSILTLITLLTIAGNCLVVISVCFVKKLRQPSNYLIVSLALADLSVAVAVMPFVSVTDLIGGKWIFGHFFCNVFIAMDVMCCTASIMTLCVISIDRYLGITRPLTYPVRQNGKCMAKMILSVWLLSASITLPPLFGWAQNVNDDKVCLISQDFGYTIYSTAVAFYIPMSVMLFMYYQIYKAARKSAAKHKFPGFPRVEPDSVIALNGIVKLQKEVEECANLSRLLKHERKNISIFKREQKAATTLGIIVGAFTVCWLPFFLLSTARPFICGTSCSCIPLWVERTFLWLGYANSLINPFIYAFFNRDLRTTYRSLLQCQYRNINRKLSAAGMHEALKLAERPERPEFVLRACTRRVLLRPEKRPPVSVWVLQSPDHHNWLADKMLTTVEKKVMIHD

[14] = target: T4, 5-hydroxytryptamine receptor 7; assay: biochemical; format: cell-based, CHO-K1
Rattus norvegicus [15] = assay: Antipsychotic-like activity in po dosed Wistar rat assessed as inhibition of MK-801-induced hyperlocomotion administered 45 mins prior to MK-801 challenge measured 60 mins post-drug administration; format: functional; conditions: read-out: MED
[16] = target: T1, 5-hydroxytryptamine receptor 2A; assay: Agonist activity at human recombinant 5-HT2A receptor expressed in CHO-K1 cells by luminescence analysis; format: cell-based
D(2) dopamine receptor [17] = target: T5, D(2) dopamine receptor (Homo sapiens, UniProt P14416); assay: biochemical
T5 sequence (P14416 whole entry): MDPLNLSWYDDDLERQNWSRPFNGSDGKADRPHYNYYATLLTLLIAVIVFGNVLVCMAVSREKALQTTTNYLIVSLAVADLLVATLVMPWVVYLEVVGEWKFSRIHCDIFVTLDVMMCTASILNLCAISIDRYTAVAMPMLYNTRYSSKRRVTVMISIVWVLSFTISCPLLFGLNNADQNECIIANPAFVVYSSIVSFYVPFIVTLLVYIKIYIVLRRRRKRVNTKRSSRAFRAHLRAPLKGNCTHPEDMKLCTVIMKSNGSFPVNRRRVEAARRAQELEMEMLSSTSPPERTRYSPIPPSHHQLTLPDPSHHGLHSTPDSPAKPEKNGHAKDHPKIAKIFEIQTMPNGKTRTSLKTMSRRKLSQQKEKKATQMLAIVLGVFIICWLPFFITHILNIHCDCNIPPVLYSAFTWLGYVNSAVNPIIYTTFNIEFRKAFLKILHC

[18] = target: T2, 5-hydroxytryptamine receptor 6; assay: Agonist activity at human recombinant 5-HT6 receptor expressed in CHO-K1 cells by luminescence analysis; format: cell-based
Rattus norvegicus [19] = assay: Toxicity in Wistar rat assessed as spontaneous locomotor activity up to 100 mg/kg, po measured after 15 mins; format: organism-based; design: dose 100 mg/kg, route oral; conditions: in vivo, 0.25 h
[20] = target: T1, 5-hydroxytryptamine receptor 2A; assay: biochemical; format: cell-based, CHO-K1
[21] = target: T4, 5-hydroxytryptamine receptor 7; assay: biochemical
[22] = target: Muscarinic acetylcholine receptor M2 (Homo sapiens, UniProt P08172); assay: biochemical
Sequence of Muscarinic acetylcholine receptor M2 (P08172 whole entry): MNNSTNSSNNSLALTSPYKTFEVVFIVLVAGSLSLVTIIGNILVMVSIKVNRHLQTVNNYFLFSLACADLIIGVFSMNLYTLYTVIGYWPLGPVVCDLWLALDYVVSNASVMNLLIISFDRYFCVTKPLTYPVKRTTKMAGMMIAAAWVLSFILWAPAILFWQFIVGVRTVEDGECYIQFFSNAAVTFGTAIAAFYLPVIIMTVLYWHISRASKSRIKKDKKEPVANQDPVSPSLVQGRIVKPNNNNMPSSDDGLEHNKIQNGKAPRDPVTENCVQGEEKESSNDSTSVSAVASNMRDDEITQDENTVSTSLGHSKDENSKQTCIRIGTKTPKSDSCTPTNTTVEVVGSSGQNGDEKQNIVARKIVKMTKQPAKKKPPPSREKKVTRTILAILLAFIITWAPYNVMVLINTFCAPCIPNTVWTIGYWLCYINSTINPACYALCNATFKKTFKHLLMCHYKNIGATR

D(3) dopamine receptor = D(3) dopamine receptor (Homo sapiens, UniProt P35462); assay: Displacement of [3H]methylspiperone from human recombinant D3 receptor expressed in CHO cells; format: cell-based
[23] = target: T6, Muscarinic acetylcholine receptor M1 (Homo sapiens) (UniProt P11229); assay: Displacement of [3H]pirenzepine from human recombinant M1 receptor expressed in CHO cells at 1 uM; format: cell-based
T6 sequence (whole entry): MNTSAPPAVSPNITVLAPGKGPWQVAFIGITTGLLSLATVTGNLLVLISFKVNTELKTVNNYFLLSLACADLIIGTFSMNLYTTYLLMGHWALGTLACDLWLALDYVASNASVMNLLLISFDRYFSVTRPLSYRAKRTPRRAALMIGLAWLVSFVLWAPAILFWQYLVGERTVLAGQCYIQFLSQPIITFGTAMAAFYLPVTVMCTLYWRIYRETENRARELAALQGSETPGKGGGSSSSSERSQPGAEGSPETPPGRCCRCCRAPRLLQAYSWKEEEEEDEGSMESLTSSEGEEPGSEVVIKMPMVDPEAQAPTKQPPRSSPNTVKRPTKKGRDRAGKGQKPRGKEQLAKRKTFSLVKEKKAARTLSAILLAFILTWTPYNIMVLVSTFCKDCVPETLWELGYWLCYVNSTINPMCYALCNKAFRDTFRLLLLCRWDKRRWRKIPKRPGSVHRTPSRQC

[24] = target: T3, Muscarinic acetylcholine receptor M3; conditions: CHO, 1 uM
Target sequence in this assay (P20309 whole entry, looked up): as the sequence (P20309 whole entry) above

Rattus norvegicus [25] = assay: Antidepressant-like activity in Wistar rat assessed as decrease in immobility time at 0.3 to 3 mg/kg, po after 60 mins by forced swimming test; format: functional; conditions: dose mg/kg 0.3-3
Rattus norvegicus [26] = assay: Induction of catalepsy in Wistar rat up to 100 mg/kg, po by bar test; format: organism-based; design: dose 100 mg/kg, route oral; conditions: in vivo
[27] = target: Muscarinic acetylcholine receptor M5 (Homo sapiens, UniProt P08912); assay: Displacement of [3H]4-DAMP from human recombinant M5 receptor expressed in CHO cells; format: cell-based
[28] = target: T4, 5-hydroxytryptamine receptor 7; assay: Antagonist activity at human 5-HT7 receptor expressed in CHO-K1 cells assessed as inhibition of serotonin-induced cAMP accumulation after 60 mins by TR-FRET immunoassay; format: functional, cell-based
[29] = target: T2, 5-hydroxytryptamine receptor 6; assay: biochemical; remark: listed apart in the source
D(2) dopamine receptor [30] = target: T5, D(2) dopamine receptor; assay: biochemical; remark: listed apart in the source
[31] = target: Sodium-dependent serotonin transporter (Homo sapiens, UniProt P31645); assay: biochemical
Sequence of Sodium-dependent serotonin transporter (P31645 whole entry): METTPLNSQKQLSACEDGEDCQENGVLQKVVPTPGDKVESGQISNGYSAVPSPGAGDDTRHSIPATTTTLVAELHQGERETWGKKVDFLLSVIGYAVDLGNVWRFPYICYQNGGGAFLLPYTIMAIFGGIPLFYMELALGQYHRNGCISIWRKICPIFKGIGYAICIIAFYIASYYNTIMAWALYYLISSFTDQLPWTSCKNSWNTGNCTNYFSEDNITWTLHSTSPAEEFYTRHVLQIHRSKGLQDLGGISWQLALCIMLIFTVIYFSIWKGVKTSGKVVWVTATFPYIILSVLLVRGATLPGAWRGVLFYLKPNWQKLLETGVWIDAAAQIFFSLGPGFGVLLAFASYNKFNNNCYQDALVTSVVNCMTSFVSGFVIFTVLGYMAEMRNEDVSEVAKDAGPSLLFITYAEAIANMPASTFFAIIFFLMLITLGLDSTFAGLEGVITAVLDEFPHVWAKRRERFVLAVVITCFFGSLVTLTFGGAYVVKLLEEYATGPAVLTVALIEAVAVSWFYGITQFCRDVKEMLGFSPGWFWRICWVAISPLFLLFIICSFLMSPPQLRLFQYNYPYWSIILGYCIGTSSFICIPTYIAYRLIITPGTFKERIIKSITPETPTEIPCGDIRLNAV

[32] = target: Muscarinic acetylcholine receptor M1 (Homo sapiens, UniProt P11229); assay: biochemical; format: cell-based, CHO
D(1A) dopamine receptor = D(1A) dopamine receptor (Homo sapiens, UniProt P21728); assay: biochemical
Sequence of D(1A) dopamine receptor (P21728 whole entry): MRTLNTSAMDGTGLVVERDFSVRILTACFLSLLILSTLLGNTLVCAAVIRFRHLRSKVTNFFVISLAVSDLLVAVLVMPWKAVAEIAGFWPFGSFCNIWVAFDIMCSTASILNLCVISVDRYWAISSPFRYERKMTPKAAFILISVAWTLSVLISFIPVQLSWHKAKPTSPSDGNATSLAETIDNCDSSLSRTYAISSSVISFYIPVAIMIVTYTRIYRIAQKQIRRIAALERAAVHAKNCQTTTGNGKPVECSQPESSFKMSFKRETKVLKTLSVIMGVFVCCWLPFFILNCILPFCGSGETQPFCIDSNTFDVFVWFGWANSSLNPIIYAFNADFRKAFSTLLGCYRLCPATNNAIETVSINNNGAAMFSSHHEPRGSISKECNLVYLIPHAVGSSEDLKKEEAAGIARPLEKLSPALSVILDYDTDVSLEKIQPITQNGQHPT

[33] = target: 5-hydroxytryptamine receptor 1A (Homo sapiens, UniProt P08908); assay: biochemical
Sequence of 5-hydroxytryptamine receptor 1A (P08908 whole entry): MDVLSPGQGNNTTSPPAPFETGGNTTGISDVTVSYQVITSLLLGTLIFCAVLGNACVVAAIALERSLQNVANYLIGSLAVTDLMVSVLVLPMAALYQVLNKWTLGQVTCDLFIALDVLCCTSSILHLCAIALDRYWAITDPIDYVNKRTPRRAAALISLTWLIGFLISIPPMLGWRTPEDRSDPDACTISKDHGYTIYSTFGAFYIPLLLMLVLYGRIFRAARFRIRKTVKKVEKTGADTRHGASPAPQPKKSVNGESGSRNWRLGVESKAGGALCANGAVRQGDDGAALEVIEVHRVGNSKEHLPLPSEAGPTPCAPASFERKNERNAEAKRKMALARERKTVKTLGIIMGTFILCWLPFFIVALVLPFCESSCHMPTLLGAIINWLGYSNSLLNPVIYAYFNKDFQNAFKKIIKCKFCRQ

[34] = target: Muscarinic acetylcholine receptor M2 (Homo sapiens) (UniProt P08172); assay: Displacement of [3H]AF-DX384 from human recombinant M2 receptor expressed in CHO cells at 1 uM; format: cell-based
Sequence of Muscarinic acetylcholine receptor M2 (Homo sapiens) (P08172 whole entry): as the sequence (P08172 whole entry) above

[35] = target: Muscarinic acetylcholine receptor M4 (Homo sapiens, UniProt P08173); assay: biochemical
D(4) dopamine receptor = D(4) dopamine receptor (Homo sapiens, UniProt P21917); assay: Displacement of [3H]methylspiperone from human recombinant D4 receptor expressed in CHO cells; format: cell-based
Histamine H1 receptor = Histamine H1 receptor (Homo sapiens, UniProt P35367); assay: biochemical; format: cell-based, HEK293
[36] = target: T2, 5-hydroxytryptamine receptor 6
[37] = target: Alpha-1A adrenergic receptor (Homo sapiens, UniProt P35348); assay: biochemical
Sequence of Alpha-1A adrenergic receptor (P35348 whole entry): as the sequence (P35348 whole entry) above

D(2) dopamine receptor [38] = target: T5, D(2) dopamine receptor; assay: Agonist activity at human recombinant D2 receptor expressed in CHO-K1 cells by luminescence analysis; format: cell-based

## O=S(=O)(NCCCCN1CCC(c2noc3cc(F)ccc23)CC1)c1cc2ccccc2s1
[1]
  Kb: 8.8 nM
[2]
  Kb: 1.8 nM
Rattus norvegicus [3]
  minimal effective dose: 3 mg/kg
[4]
  pKi: 6.27
[5]
  Kb: 4.8 nM
[6]
  Kb: 9.9 nM
[7]
  inhibition: < 40%
[8]
  inhibition: < 40%
[9]
  pKi: 8.19
[10]
  pKi: 8.72
[11]
  pKi: 9.30
[12]
  pKi: < 6.00
[13]
  Activity: inactive
[14]
  pKi: 8.80
Rattus norvegicus [15]
  minimal effective dose: 10 mg/kg
[16]
  Activity: inactive
D(2) dopamine receptor [17]
  pKi: 8.74
[18]
  Activity: inactive
Rattus norvegicus [19]
  Activity: Non-toxic
[20]
  pKi: 9.22
[21]
  pKi: 8.72
[22]
  pKi: < 6.00
D(3) dopamine receptor
  pKi: 8.96
[23]
  inhibition: 21%
[24]
  inhibition: < 40%
Rattus norvegicus [25]
  inhibition (INH): 20%
Rattus norvegicus [26]
  Activity: Non-toxic
[27]
  pKi: < 6.00
[28]
  Kb: 7.8 nM
[29]
  pKi: 8.39
D(2) dopamine receptor [30]
  pKi: 8.70
[31]
  pIC50: < 6.00
[32]
  pKi: < 6.00
D(1A) dopamine receptor
  pKi: 8.48
[33]
  pKi: 6.96
[34]
  inhibition: < 40%
[35]
  pKi: < 6.00
D(4) dopamine receptor
  pKi: 7.85
Histamine H1 receptor
  pKi: 7.16
[36]
  Kb: 16 nM
[37]
  pKi: 9.10
D(2) dopamine receptor [38]
  Activity: inactive
